From patent US20100061994A1, “MEDICAL USES OF 39-DESMETHOXYRAPAMYCIN AND ANALOGUES THEREOF” (priority 2005, published 2010)
Where two headings read alike, the source gives them in different places.

Test: Pharmacokinetic analysis Protocol 2 (blood and brain)
Type: in vivo, female Balb C mice
Details: female, Balb C, mouse; for Kp: brain / whole blood; for AUC: whole blood, blood, 0-24 h
Method: To prepare the dosing solution, 5 mg test compound was dissolved in 100 μL ethanol resulting in a compound solution of 50 mg/mL. The solution was then diluted to 2 mg/mL by adding approximately 2.4 mL 0.15 M NaCl (0.9% w/v saline), 5% v/v Tween 20 and 5% v/v PEG 400 (final ethanol conc. 4% v/v).
A single dose of 10 mg/kg p.o. or 2 mg/kg i.v. of test compound at a concentration of 10 mg/kg p.o or 2 mg/kg i.v. was administered to groups of 3 female Balb C mice. At 5 min, 15 min, 60 min, 4 h, 8 h and 24 h, groups were sacrificed and whole blood samples of approximately 0.2 mL were retrieved in EDTA to give a final concentration of 0.5 mM, additionally the brains were removed.

CO[C@H]1C[C@@H]2CC[C@@H](C)[C@@](O)(O2)C(=O)C(=O)N2CCCC[C@H]2C(=O)O[C@H]([C@H](C)C[C@@H]2CC[C@@H](O)[C@H](OC)C2)CC(=O)[C@H](C)/C=C(\C)[C@@H](O)[C@@H](OC)C(=O)[C@H](C)C[C@H](C)/C=C/C=C/C=C/1C [Rapamycin]
Kp (intravenous, PK protocol 2, 2 mg/kg i.v., read-out: Ri i.v. (partition coefficient)): 0.255 | Kp (oral, PK protocol 2, 10 mg/kg p.o., read-out: Ri p.o. (partition coefficient)): 0.066 | AUC (iv, PK protocol 2, 2 mg/kg i.v., read-out: AUCBLOOD i.v.): 24900 ng·h/mL | AUC (po, PK protocol 2, 10 mg/kg p.o., read-out: AUCBLOOD p.o.): 25200 ng·h/mL
